Consider one compound from paper PMC4848641, “The Scorpion Toxin Analogue BmKTX-D33H as a Potential Kv1.3 Channel-Selective Immunomodulator for Autoimmune Diseases” (Toxins, 2016).

In series [1] the test system is CD3^+ T cells. It counts as cell-based. Particulars: human CD3^+ T cells, anti-CD3/CD28 beads, 48 h; CellTiter 96 AQueous One Solution, 490 nm. As for the experimental part:
(§1) Peripheral blood (PB) obtained from four healthy volunteers was approved by the Ethics Committee of the College of Life Sciences in Wuhan University (Permit number: ECCLS20120076, approved at 3 May 2012). Ficoll gradients were used to isolate mononuclear cells from PB. The CD3^+ T cells were then purified using EasySep Isolation Kit (StemCell Technologies, Vancouver, BC, Canada), and cultured at density of 5 × 10^5 cells per cm^2 in RPMI-1640 medium supplemented with 2 mM glutamine, and 10% FBS. All the T-cells were cultured at a temperature of 37 °C in a humidified 95% air and 5% CO2 atmosphere. The Jurkat cells were stimulated with 100 ng/ml phorbol ester (PMA) (Sigma-Aldrich, Munich, Germany) and […] Ionmycin (ION) (Sigma-Aldrich, Munich, Germany). The CD3^+ T cells were stimulated with anti-CD3/CD28 antibodies beads (Life Technologies, Waltham, MA, USA). BmKTX-D33H (ranged from 0.1 to 100 nM) was added for 1 h prior to stimulation.
(§2) The Jurkat cells or peripheral blood CD3^+ cells were seeded in round-bottom plates (Corning-costar) at 5 × 10^5 cells per cm^2. […] The cells were cultured for 48 h, and cell proliferation was measured using CellTiter 96 AQueous One Solution Cell Proliferation Assay Kit (Promega, Madison, WI, USA) in accordance with the manufacturer’s guide. Absorbance was read at a wavelength of 490 nm.

Series [2] has as its system Kv1.3 channels on the freshly isolated CD3^+ T cells. Briefly: Whole-cell patch-clamp, Kv1.3 currents in freshly isolated human CD3^+ T cells. The series is classed as cell-based. The conditions noted are these: pH 7.4, means ± S.E. of at least three experiments. The protocol:
(§3) Whole cell patch-clamp recordings of Kv1.3 channel were obtained from human T cells. Electrophysiological experiments of other assayed potassium channels were performed on HEK293 cells transfected with cDNA encoding Kv1.1, Kv1.2, Kv1.3, Kv7.1, Kv11.1, KCa2.2, KCa2.3, and KCa3.1 channels using TurboFect Reagent (ThermoSci., Waltham, MA, USA). The cDNAs were subcloned into the Xho I/Bam HI sites of pIRES2-EGFP, a bicistronic expression vector (Clontech, Mountain View, CA, USA) coexpressed with enhanced GFP. The constructs were verified by DNA sequencing. Currents were recorded on eGFP-expression positive cells one to three days post-transfection. Electrophysiological experiments were performed using protocols according to previously published references. Cells were bathed with mammalian Ringer’s solution: 5 mM KCl, 140 mM NaCl, 2 mM CaCl2, 1 mM MgCl2, […], 10 mM D-glucose (adjusted to pH 7.4 with NaOH). A multichannel microperfusion system MPS-2 (INBIO Inc, Wuhan, China) was used to exchange the external recording bath solution. […] Membrane currents were measured with an EPC 10 patch clamp amplifier (HEKA Elektronik, Lambrecht/Pfalz, Germany) interfaced to a computer running acquisition and analysis software (Pulse, v8.80, HEKA Elektronik, Lambrecht/Pfalz, Germany). […]

For another series, the system named is KCa3.1. Briefly: Whole-cell patch-clamp, KCa3.1 channel currents (transfected HEK293 cells). The series is classed as cell-based. The conditions noted are these: micromolar concentration (1 μM), pH 7.4. As for the experimental part: as §3
Series [3] deals with Jurkat cells.
Excerpt: (§4) Jurkat E6-1 cells were obtained from the American Tissue Culture Collection (ATCC, Manassas, VA, USA) and cultured in RPMI-1640 supplied with 10% fetal bovine serum (FBS).
(§5) Peripheral blood (PB) obtained from four healthy volunteers was approved by the Ethics Committee of the College of Life Sciences in Wuhan University (Permit number: ECCLS20120076, approved at 3 May 2012). Ficoll gradients were used to isolate mononuclear cells from PB. The CD3^+ T cells were then purified using EasySep Isolation Kit (StemCell Technologies, Vancouver, BC, Canada), and cultured at density of 5 × 10^5 cells per cm^2 in RPMI-1640 medium supplemented with 2 mM glutamine, and 10% FBS. […]
as §2
(§6) The IL-2, IFN-γ, and TNF-α levels in supernatants of stimulated cells were measured with ELISA kit (Dakewei, Shenzhen, China) following the manufacturer’s protocol. Absorbance was measured with an automatic plate reader at a wavelength of 450 nm with reference at 630 nm.

For another series, the system named is KCa2.3. Briefly: Whole-cell patch-clamp, KCa2.3 channel currents (transfected HEK293 cells). The series is classed as cell-based. The conditions noted are these: micromolar concentration (1 μM), pH 7.4. The protocol:
as §3

Series [4] deals with Jurkat cells. It counts as cell-based. Particulars: 48 h post-stimulation with 100 ng/mL PMA and 1 mM Ionmycin; CellTiter 96 AQueous One Solution, 490 nm.
Excerpt: as §4
as §1, with “The CD3^+ T cells were stimulated with anti-CD3/CD28 antibodies beads (Life Technologies, Waltham, MA, USA). BmKTX-D33H (ranged from 0.1 to 100 nM) was added for 1 h prior to stimulation.” left out
as §2

A further series relates to Kv1.7. Briefly: Whole-cell patch-clamp, Kv1.7 (Kv7.1 in legend and methods) channel currents (transfected HEK293 cells). The conditions noted are these: micromolar concentration (1 μM), pH 7.4. It counts as cell-based. As for the experimental part: as §3
The test system of the next series is Kv11.1. The series is classed as cell-based. Particulars: micromolar concentration (1 μM); HEK293 cells, patch-clamp, pH 7.4. As for the experimental part: as §3
A further series has as its system Kv1.1. In words: Whole-cell patch-clamp, Kv1.1 channel currents (transfected HEK293 cells). It counts as cell-based. Particulars: 1 μM, −80 mV to +50 mV, pH 7.4, means ± S.E. of at least three experiments. As for the experimental part:
as §3

Another series deals with Lewis rats. In words: Active delayed-type hypersensitivity (DTH), ear swelling. It counts as in vivo. Particulars: female Lewis rats; 100 μg/kg, single subcutaneous injection at ovalbumin challenge; 4, 6, and 24 h after challenge; vs vehicle control. The protocol: The animal trial was approved by the Animal Use and Care Committee of the Wuhan University. Female Lewis rats (9–10 weeks of age) were purchased from Charles River Laboratories and housed under pathogen-free conditions. Active DTH was induced as describe previously by immunizing rats against antigen of ovalbumin (Sigma-Aldrich, Munich, Germany) emulsified with complete Freund’s adjuvant (Sigma-Aldrich, Munich, Germany). The emulsion was injected subcutaneously into Lewis rats in order to prime the immune system and develop memory T cells. Seven days later, the rats were challenged again with ovalbumin (20 μg in 20 μL of saline solution) in the pinna of one ear (challenged ear). The other side of ear received saline solution as challenge control. Rats in control group received a single subcutaneous injection of 0.5 mL vehicle (saline solution) in the scruff of the neck, at the time of second-challenge. Whereas, rats in drug-treatment group received 100 μg/kg BmKTX-D33H (in 0.5 mL vehicle) administrated using the same method. The change for thickness of ear (at 4, 6, and 24 h post-challenge) was measured as an indication of the inflammatory reaction and DTH severity.

In the next series the test system is KCa2.2. In words: Whole-cell patch-clamp, KCa2.2 channel currents (transfected HEK293 cells). The series is classed as cell-based. The conditions noted are these: micromolar concentration (1 μM), pH 7.4. As for the experimental part:
as §3

Series [5] deals with CD3^+ T cells. Particulars: pre-incubation for 1 h before activation; anti-CD3/CD28 beads; ELISA. As for the experimental part: as §5, with “FBS. All the T-cells were cultured at a temperature of 37 °C in a humidified 95% air and 5% CO2 atmosphere.” for “FBS.”
as §2, §6

The next series relates to Kv1.3 channels. In words: Whole-cell patch-clamp, Kv1.3 channel currents. It counts as cell-based. The conditions noted are these: 10 pM, 200 ms depolarizing steps from holding potential −80 mV to +50 mV, pH 7.4, means ± S.E. of at least three experiments. As for the experimental part:
as §3

Series [6] concerns Kv1.3 channel. Particulars: ref [29], cited from earlier work. An excerpt: The venomous scorpions, which have lived on earth for over 400 million years, rely on their venoms for their efficient defense and capture strategy. During their molecular evolution, scorpions produced hundreds of peptide-based toxins in their venoms, typically targeting ion channels with a high degree of molecular diversity. Accordingly, scorpion venoms have been considered as invaluable resources of ion channel inhibitors. […] Because ADWX-1 is a potent blocker of the […] channel (IC50 value of 0.6 nM), we further investigated the pharmacological profile of BmKTX-D33H. || The most remarkable feature of BmKTX-D33H is its sought-after selectivity towards the Kv1.3 channel. Indeed, improving the selectivity of scorpion toxins (especially Kv1.1 versus Kv1.3 channel subtypes) still remains a serious challenge. […] For ADWX-1 ...

The subject of a further series is Kv1.2. In words: Whole-cell patch-clamp, Kv1.2 channel currents (transfected HEK293 cells). It counts as cell-based. The conditions noted are these: micromolar concentration (1 μM), pH 7.4. As for the experimental part:
as §3

Series [7] deals with Kv1.3 channel. Briefly: Selectivity towards the Kv1.3 channel over other K^+ channels. The series is classed as cell-based. The conditions noted are these: versus Kv1.1, Kv1.2, Kv1.7 (Kv7.1), Kv11.1, KCa2.2, KCa2.3, and KCa3.1. As for the experimental part:
as §3

Entries after “also recorded” stand apart in the source; their conditions may differ. Where a SMILES comes first, the peptide text is derived from it. Bridges are numbered along the chain shown (N, C = ends).

`CC[C@H](C)[C@H](NC(=O)CNC(=O)[C@@H](N)C(C)C)C(=O)N[C@@H](CC(N)=O)C(=O)N[C@H](C(=O)N[C@@H](CCCCN)C(=O)N[C@H]1CSSC[C@@H]2NC(=O)[C@H](CCCCN)NC(=O)CNC(=O)[C@H](Cc3ccccc3)NC(=O)[C@H](CCCNC(=N)N)NC(=O)[C@H](CCSC)NC(=O)CNC(=O)[C@H](C)NC(=O)[C@H](CC(=O)O)NC(=O)[C@H](CCCCN)NC(=O)[C@@H]3CSSC[C@@H](C(=O)N[C@H](C(=O)N4CCC[C@H]4C(=O)N[C@@H](CCCCN)C(=O)O)[C@@H](C)O)NC(=O)[C@H](Cc4c[nH]cn4)NC(=O)[C@H](CSSC[C@H](NC(=O)[C@H](CCC(N)=O)NC(=O)CNC(=O)[C@H](CO)NC(=O)[C@H](Cc4c[nH]cn4)NC(=O)[C@H](CCCCN)NC1=O)C(=O)N[C@@H](CC(C)C)C(=O)N[C@@H](CCCCN)C(=O)N1CCC[C@H]1C(=O)N3)NC(=O)[C@H](CCCCN)NC(=O)CNC(=O)[C@H](CC(N)=O)NC(=O)[C@H]([C@@H](C)CC)NC2=O)C(C)C` [BmKTX-D33H] (H-VGINVKCKHSGQCLKPCKDAGMRFGKCINGKCHCTPK-OH; disulfide 7-27, 13-32, 17-34; N-terminus and C-terminus assumed): in the series on CD3^+ T cells [1], the “proliferation (growth) of CD3^+ cells” value was “suppressed the growth of CD3^+ cells; also recorded: Suppression of cytokine production and in vitro proliferation”. The “inhibition of Kv1.3 currents in CD3^+ T cells” value in series [2] (1 nM) was 63.3% ± 2.9%; in series [2] (10 nM), 90.7% ± 2.1%. The “sensitivity of KCa3.1 channel” value in the series with KCa3.1 was “much less sensitive”. Also, the concentration for half-maximal inhibition (IC50) is 23.9 ± 20.1 nM with Jurkat cells [3] (33 h) and 0.0154 nM with Kv1.3 channel [6]. The “IL-2 expression of Jurkat cells” value in the series with Jurkat cells [3] (stimulated by PMA + ION, ELISA) was “significantly reduced”. In the series with KCa2.3, the “sensitivity of KCa2.3 channel” value is reported as “much less sensitive”. In the series on Jurkat cells [4], the “proliferation (growth) of Jurkat cells” value is listed as “significantly inhibited; also recorded: Proliferation of activated Jurkat cells was suppressed”. Moreover, the “sensitivity of Kv1.7 channel” value with Kv1.7 is “much less sensitive”. The “sensitivity of Kv11.1 channel” value in the series on Kv11.1 is reported as “much less sensitive”. The “inhibition of Kv1.1 channel currents” value in the series with Kv1.1 is listed as “about 46.6% ± 2.0%”. In the series with Lewis rats, the “DTH response, change of ear thickness” value is given as “significantly improved the delayed-type hypersensitivity (DTH) responses; also recorded: changes of ear thickness were significantly reduced; also recorded: dramatically reduced the in vivo DTH responses”. For the same compound, the “sensitivity of KCa2.2 channel” value with KCa2.2 was “much less sensitive”. Further, the “IFN-γ, TNF-α and IL-2 secretion of human T cells” value in the series with CD3^+ T cells [5] is reported as “robust dose-dependent reduction”. Also, the “inhibition of Kv1.3 channel currents” value in the series with Kv1.3 channels is given as 56.0% ± 2.0%. In the series on Kv1.3 channel [6] (compared to wild-type BmKTX), the “potency on the Kv1.3 channel compared with wild-type BmKTX” value was “increased potency (as compared to wild-type BmKTX)”. Further, the “sensitivity of Kv1.2 channel” value in the series with Kv1.2 was “much less sensitive”. For the same compound, in the series on Kv1.3 channel [7], the “selectivity towards the Kv1.3 channel as compared to other K^+ channels” value is on record as “more than 1000 fold”.
